Source: ChEMBL document CHEMBL3774317, “Design and synthesis of novel tamoxifen analogues that avoid CYP2D6 metabolism” (Eur J Med Chem, 2016)

Columns and labels:
Type in all cases: functional
SK-MEL-2 = test: Cytotoxicity against human SK-MEL-2 cells assessed as cell growth at 10^-5 M after 48 hrs by SRB assay; conditions: SK-MEL-2, 48 h, read-out: Activity
EKVX = test: Cytotoxicity against human EKVX cells assessed as cell growth at 10^-6 M after 48 hrs by SRB assay; conditions: read-out: Activity
[1] = Cytotoxicity against human HOP92 cells assessed as cell growth at 10^-7 M after 48 hrs by SRB assay; conditions: HOP-92, 48 h, read-out: Activity
SK-MEL-28 = test: Cytotoxicity against human SK-MEL-28 cells assessed as cell growth at 10^-4 M after 48 hrs by SRB assay; conditions: SK-MEL-28, 48 h, read-out: Activity
[2] = Cytotoxicity against human OVCAR5 cells assessed as cell growth at 10^-6 M after 48 hrs by SRB assay; conditions: OVCAR-5, 48 h, read-out: Activity
[3] = Cytotoxicity against human SF268 cells assessed as cell growth at 10^-6 M after 48 hrs by SRB assay; conditions: SF-268, 48 h, read-out: Activity
[4] = Cytotoxicity against human LOXIMVI cells assessed as cell growth at 10^-5 M after 48 hrs by SRB assay; conditions: LOX IMVI, read-out: Activity
[5] = Cytotoxicity against human HCT116 cells assessed as cell growth at 10^-7 M after 48 hrs by SRB assay; conditions: HCT-116, 48 h, read-out: Activity
MDA-MB-468 = test: Cytotoxicity against human MDA-MB-468 cells assessed as cell growth at 10^-8 M after 48 hrs by SRB assay; conditions: MDA-MB-468, 48 h, read-out: Activity
NCI-H460 [6] = test: Cytotoxicity against human NCI-H460 cells assessed as cell growth at 10^-5 M after 48 hrs by SRB assay; conditions: NCI-H460, 48 h, read-out: Activity
ACHN [7] = test: Cytotoxicity against human ACHN cells assessed as cell growth at 10^-6 M after 48 hrs by SRB assay; conditions: read-out: Activity
NCI-H460 [8] = test: Cytotoxicity against human NCI-H460 cells assessed as cell growth at 10^-7 M after 48 hrs by SRB assay; conditions: NCI-H460, 48 h, read-out: Activity
NCI-H23 [9] = test: Cytotoxicity against human NCI-H23 cells assessed as cell growth at 10^-8 M after 48 hrs by SRB assay; conditions: NCI-H23, 48 h, read-out: Activity
[10] = Cytotoxicity against human IGROV1 cells assessed as cell growth at 10^-6 M after 48 hrs by SRB assay; conditions: IGROV-1, 48 h, read-out: Activity
NCI-H522 [11] = test: Cytotoxicity against human NCI-H522 cells assessed as cell growth at 10^-5 M after 48 hrs by SRB assay; conditions: NCI-H522, 48 h, read-out: Activity
[12] = Cytotoxicity against human SNB75 cells assessed as cell growth at 10^-7 M after 48 hrs by SRB assay; conditions: SNB-75, 48 h, read-out: Activity
SK-MEL-5 = test: Cytotoxicity against human SK-MEL-5 cells assessed as cell growth at 10^-4 M after 48 hrs by SRB assay; conditions: SK-MEL-5, 48 h, read-out: Activity
SR [13] = test: Cytotoxicity against human SR cells assessed as cell growth at 10^-6 M after 48 hrs by SRB assay; conditions: read-out: Activity
NCI-H23 [14] = test: Cytotoxicity against human NCI-H23 cells assessed as cell growth at 10^-4 M after 48 hrs by SRB assay; conditions: NCI-H23, 48 h, read-out: Activity
U-251 = test: Cytotoxicity against human U251 cells assessed as cell growth at 5 uM after 48 hrs by SRB assay; conditions: U-251, 48 h, read-out: Activity
M14 = test: Cytotoxicity against human M14 cells assessed as cell growth at 5 uM after 48 hrs by SRB assay; conditions: M14, 48 h, read-out: Activity
NCI-H522 [15] = test: Cytotoxicity against human NCI-H522 cells assessed as cell growth at 5 uM after 48 hrs by SRB assay; conditions: NCI-H522, 48 h, read-out: Activity
[16] = Cytotoxicity against human UACC62 cells assessed as cell growth at 5 nM after 48 hrs by SRB assay; conditions: UACC-62, 48 h, read-out: Activity
[17] = Cytotoxicity against human COLO205 cells assessed as cell growth at 50 nM after 48 hrs by SRB assay; conditions: COLO 205, 48 h, read-out: Activity
[18] = Cytotoxicity against human SNB75 cells assessed as cell growth at 0.5 uM after 48 hrs by SRB assay; conditions: SNB-75, 48 h, read-out: Activity
SR [19] = test: Cytotoxicity against human SR cells assessed as cell growth at 50 nM after 48 hrs by SRB assay; conditions: read-out: Activity
MDA-MB-435 = test: Cytotoxicity against human MDA-MB-435 cells assessed as cell growth at 5 nM after 48 hrs by SRB assay; conditions: MDA-MB-435, 48 h, read-out: Activity
[20] = Cytotoxicity against human MOLT4 cells assessed as cell growth at 5 nM after 48 hrs by SRB assay; conditions: MOLT-4, 48 h, read-out: Activity
786-0 = test: Cytotoxicity against human 786-0 cells assessed as cell growth at 5 nM after 48 hrs by SRB assay; conditions: 786-0, 48 h, read-out: Activity
ACHN [21] = test: Cytotoxicity against human ACHN cells assessed as cell growth at 5 nM after 48 hrs by SRB assay; conditions: read-out: Activity
[22] = Cytotoxicity against human SNB19 cells assessed as cell growth at 50 nM after 48 hrs by SRB assay; conditions: SNB-19, 48 h, read-out: Activity
[23] = Cytotoxicity against human SF539 cells assessed as cell growth at 50 uM after 48 hrs by SRB assay; conditions: SF-539, 48 h, read-out: Activity
[24] = Cytotoxicity against human HCT116 cells assessed as cell growth at 5 nM after 48 hrs by SRB assay; conditions: HCT-116, 48 h, read-out: Activity
[25] = Cytotoxicity against human HOP62 cells assessed as cell growth at 0.5 uM after 48 hrs by SRB assay; conditions: HOP-62, 48 h, read-out: Activity
[26] = Cytotoxicity against human MOLT4 cells assessed as cell growth at 50 nM after 48 hrs by SRB assay; conditions: MOLT-4, 48 h, read-out: Activity
[27] = Cytotoxicity against human HL-60(TB) cells assessed as cell growth at 5 nM after 48 hrs by SRB assay; conditions: HL-60, 48 h, read-out: Activity
KM12 = test: Cytotoxicity against human KM12 cells assessed as cell growth at 5 uM after 48 hrs by SRB assay; conditions: KM12, 48 h, read-out: Activity
NCI-H23 [28] = test: Cytotoxicity against human NCI-H23 cells assessed as cell growth at 50 uM after 48 hrs by SRB assay; conditions: NCI-H23, 48 h, read-out: Activity
[29] = Cytotoxicity against human SF295 cells assessed as cell growth at 5 nM after 48 hrs by SRB assay; conditions: SF-295, 48 h, read-out: Activity
K562 [30] = test: Cytotoxicity against human K562 cells assessed as cell growth at 5 nM after 48 hrs by SRB assay; conditions: K562, 48 h, read-out: Activity
K562 [31] = test: Cytotoxicity against human K562 cells assessed as cell growth at 50 uM after 48 hrs by SRB assay; conditions: K562, 48 h, read-out: Activity

C/C(=C(/c1ccc(O)cc1)c1ccc(OCCN2CCCC2)cc1)c1ccccc1 gave a growth at 10 µM (SK-MEL-2) of -67%, a growth at 1 µM (EKVX) of 78% and a growth at 0.1 µM [1] of 102%. For the same molecule, the growth at 100 µM (SK-MEL-28) was -93%, the growth at 1 µM [2] was 85% and the growth at 1 µM [3] was 88%. For the same molecule, the growth at 10 µM [4] was -86%, the growth at 0.1 µM [5] was 101% and the growth at 0.01 µM (MDA-MB-468) was 99%. The growth at 10 µM (NCI-H460 [6]) was -38%, the growth at 1 µM (ACHN [7]) was 93% and the growth at 0.1 µM (NCI-H460 [8]) was 106%. For the same molecule, the growth at 0.01 µM (NCI-H23 [9]) was 92%, the growth at 1 µM [10] was 95% and the growth at 10 µM (NCI-H522 [11]) was -38%. For the same molecule, the growth at 0.1 µM [12] was 83%, the growth at 100 µM (SK-MEL-5) was -100% and the growth at 1 µM (SR [13]) was 80%. The growth at 100 µM (NCI-H23 [14]) was -83%.

Work on CCCCCCCCCC(=O)Oc1ccc(/C(=C(/C)c2ccccc2)c2ccc(OCCN3CCCC3)cc2)cc1 yielded a growth at 5 µM (U-251) of 86%, a growth at 5 µM (M14) of 87% and a growth at 5 µM (NCI-H522 [15]) of 96%. The growth at 0.005 µM [16] was 100%, the growth at 0.05 µM [17] was 96% and the growth at 0.5 µM [18] was 68%. The growth at 0.05 µM (SR [19]) was 87%, the growth at 0.005 µM (MDA-MB-435) was 99% and the growth at 0.005 µM [20] was 97%. For the same molecule, the growth at 0.005 µM (786-0) was 102%, the growth at 0.005 µM (ACHN [21]) was 101% and the growth at 0.05 µM [22] was 98%. It also gave a growth at 50 µM [23] of -82%, a growth at 0.005 µM [24] of 98% and a growth at 0.5 µM [25] of 81%. The growth at 0.05 µM [26] was 91%, the growth at 0.005 µM [27] was 101% and the growth at 5 µM (KM12) was 94%. For the same molecule, the growth at 50 µM (NCI-H23 [28]) was -78%, the growth at 0.005 µM [29] was 94% and the growth at 0.005 µM (K562 [30]) was 100%. It also gave a growth at 50 µM (K562 [31]) of -70%.
